The results in this text go back to patent US20080139558A1, “QUINOLONES USEFUL AS INDUCIBLE NITRIC OXIDE SYNTHASE INHIBITORS” (KALYPSYS, INC., priority 2006, published 2008).

The structures appear in SMILES notation.

This assay deals with T1, human iNOS (Homo sapiens, UniProt P35228).
T1 construct: expressed in transfected cells; host or cells: HEK293
T1 sequence (P35228 whole entry): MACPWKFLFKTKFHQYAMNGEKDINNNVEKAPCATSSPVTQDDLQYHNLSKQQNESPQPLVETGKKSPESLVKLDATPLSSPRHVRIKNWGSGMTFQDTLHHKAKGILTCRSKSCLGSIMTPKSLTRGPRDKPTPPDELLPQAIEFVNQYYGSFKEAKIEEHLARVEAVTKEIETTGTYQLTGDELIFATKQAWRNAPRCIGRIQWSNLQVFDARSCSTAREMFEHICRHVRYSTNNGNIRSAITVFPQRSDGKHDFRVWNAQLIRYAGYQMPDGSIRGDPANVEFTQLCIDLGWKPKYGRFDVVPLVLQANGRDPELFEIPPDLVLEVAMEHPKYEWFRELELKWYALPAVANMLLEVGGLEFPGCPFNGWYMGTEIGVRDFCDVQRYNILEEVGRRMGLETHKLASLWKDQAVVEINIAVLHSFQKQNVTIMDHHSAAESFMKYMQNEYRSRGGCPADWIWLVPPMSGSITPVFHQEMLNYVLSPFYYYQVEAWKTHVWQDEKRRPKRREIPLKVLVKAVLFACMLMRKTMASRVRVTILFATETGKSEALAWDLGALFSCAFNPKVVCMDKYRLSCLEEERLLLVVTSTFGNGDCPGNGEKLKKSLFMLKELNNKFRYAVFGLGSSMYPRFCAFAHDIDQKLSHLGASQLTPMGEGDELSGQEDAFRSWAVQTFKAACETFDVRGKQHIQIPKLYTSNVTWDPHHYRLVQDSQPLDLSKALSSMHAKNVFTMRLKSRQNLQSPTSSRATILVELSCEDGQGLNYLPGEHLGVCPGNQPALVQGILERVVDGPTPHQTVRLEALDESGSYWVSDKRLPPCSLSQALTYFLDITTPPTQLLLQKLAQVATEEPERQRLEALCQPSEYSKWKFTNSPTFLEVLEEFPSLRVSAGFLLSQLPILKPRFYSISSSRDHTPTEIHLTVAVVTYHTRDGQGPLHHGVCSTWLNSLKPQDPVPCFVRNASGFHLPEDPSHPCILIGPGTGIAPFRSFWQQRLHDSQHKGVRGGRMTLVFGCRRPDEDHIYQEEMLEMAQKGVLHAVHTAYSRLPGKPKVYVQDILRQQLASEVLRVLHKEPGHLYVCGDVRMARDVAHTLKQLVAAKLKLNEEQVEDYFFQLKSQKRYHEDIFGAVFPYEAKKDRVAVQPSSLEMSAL
In words: DAN assay of nitric oxide production (hiNOS). It counts as cell-based. To be noted: enzyme expressed in HEK293 cells transiently transfected with human iNOS. An excerpt: The source of nitric oxide synthase (NOS) enzyme can be generated in several ways including induction of endogenous iNOS using cytokines and/or lipopolysaccharide (LPS) in various cell types known in the art. Alternatively, the gene encoding the enzyme can be cloned and the enzyme can be generated in cells via heterologous expression from a transient or stable expression plasmid with suitable features for protein expression as are known in the art. Enzymatic activity (nitric oxide production) is calcium independent for iNOS, while the constitutive NOS isoforms, nNOS and eNOS, become active with the addition of various cofactors added to cellular media or extract as are well known in the art. Enzymes specified in Table 1 were expressed in HEK293 cells transiently transfected with human iNOS.
A major metabolic pathway for nitric oxide is to nitrate and nitrite, which are stable metabolites within tissue culture, tissue, plasma, and urine (S Moncada, A Higgs, N Eng J Med 329, 2002 (1993)).
The level of nitrate or nitrite in the specimen can be quantified by any method known in the art which provides adequate sensitivity and reproducibility. A variety of protocols have also been described for detecting and quantifying nitrite and nitrate levels in biological fluids by ion chromatography (e.g., A Everett et al., J. Chromatogr. 706, 437 (1995); J M Monaghan et al., J. Chromatogr. 770, 143 (1997)), high-performance liquid chromatography (e.g., M Kelm et al., Cardiovasc. Res. 41, 765 (1999)), and capillary electrophoresis (MA Friedberg et al., J. Chromatogr. 781, 491 (1997)). For example, 2,3-diaminonaphthalene reacts with the nitrosonium cation that forms spontaneously from NO to form the fluorescent product 1H-naphthotriazole. Using 2,3-diaminonaphthalene (“DAN”), researchers have developed a rapid, quantitative fluorometric assay that can detect from 10 nM to 10 μM nitrite and is compatible with a multi-well microplate format. […] DAN reacts with nitrite ion and gives fluorescent naphthotriazole (MC Carré et al., Analusis 27, 835-838 (1999)). Table 1 provides the test results of various compounds of the subject invention using the DAN assay.
A specimen can be processed prior to determination of nitrate or nitrite as required by the quantification method, or in order to improve the results, or for the convenience of the investigator. For example, processing can involve centrifuging, filtering, or homogenizing the sample. If the sample is whole blood, the blood can be centrifuged to remove cells and the nitrate or nitrite assay performed on the plasma or serum fraction. If the sample is tissue, the tissue can be dispersed or homogenized by any method known in the art prior to determination of nitrate or nitrite. It may be preferable to remove cells and other debris by centrifugation or another method and to determine the nitrate or nitrite level using only the fluid portion of the sample, or the extracellular fluid fraction of the sample. The sample can also be preserved for later determination, for example by freezing of urine or plasma samples. When appropriate, additives may be introduced into the specimen to preserve or improve its characteristics for use in the nitrate or nitrite assay.
The “level” of nitrate, nitrite, or other NO-related product usually refers to the concentration (in moles per liter, micromoles per liter, or other suitable units) of nitrate or nitrite in the specimen, or in the fluid portion of the specimen. However, other units of measure can also be used to express the level of nitrate or nitrite. For example, an absolute amount (in micrograms, milligrams, nanomoles, moles, or other suitable units) can be used, particularly if the amount refers back to a constant amount (e.g., grams, kilograms, milliliters, liters, or other suitable units) of the specimens under consideration. A number of commercially available kits can be used. […]
Usually EC50 stands for the midpoint of the concentration-response curve. `Cc1ncsc1C(=O)N(Cc1cc(=O)[nH]c2c(F)cccc12)c1cccc(Cl)c1` [Example 43, N-(3-Chlorophenyl)-N-((8-fluoro-2-oxo-1,2-dihydroquinolin-4-yl)methyl)-4-methylthiazole-5-carboxamide] gave an EC50 above 5 µM.

Regarding `O=C(c1cncs1)N(Cc1cc(=O)[nH]c2c(F)cccc12)c1cccc(Cl)c1` [Example 44, N-(3-Chlorophenyl)-N-((8-fluoro-2-oxo-1,2-dihydroquinolin-4-yl)methyl)thiazole-5-carboxamide], the EC50 was above 5 µM.

With `Cc1ncsc1CN(Cc1cc(=O)[nH]c2c(F)cccc12)c1cccc(Cl)c1` [Example 45, 4-(((3-Chlorophenyl)((4-methylthiazol-5-yl)methyl)amino)methyl)-8-fluoroquinolin-2(1H)-one], the EC50 was at most 5 µM.

Compound `Cn1cnc(C(=O)N(Cc2cc(=O)[nH]c3c(F)cccc23)c2cccc(Cl)c2)c1` [Example 46, N-(3-Chlorophenyl)-N-((8-fluoro-2-oxo-1,2-dihydroquinolin-4-yl)methyl)-1-methyl-1H-imidazole-4-carboxamide] had an EC50 above 5 µM.

Consider `Cn1ccnc1C(=O)N(Cc1cc(=O)[nH]c2c(F)cccc12)c1cccc(Cl)c1` [Example 47, N-(3-Chlorophenyl)-N-((8-fluoro-2-oxo-1,2-dihydroquinolin-4-yl)methyl)-1-methyl-1H-imidazole-2-carboxamide], for which the concentration giving a half-maximal response (EC50) is above 5 µM.

In turn, `Cn1cncc1C(=O)N(Cc1cc(=O)[nH]c2c(F)cccc12)c1cccc(Cl)c1` [Example 48, N-(3-Chlorophenyl)-N-((8-fluoro-2-oxo-1,2-dihydroquinolin-4-yl)methyl)-1-methyl-1H-imidazole-5-carboxamide] registered an EC50 above 5 µM.

Turning to `Cc1ncsc1C(=O)N(Cc1cc(=O)[nH]c2c(Cl)cccc12)c1cccc(Cl)c1` [Example 49, N-((8-Chloro-2-oxo-1,2-dihydroquinolin-4-yl)methyl)-N-(3-chlorophenyl)-4-methylthiazole-5-carboxamide], the EC50 was above 5 µM.

Compound `Cc1ncsc1C(=O)N(Cc1cc(=O)[nH]c2c(F)ccc(C)c12)c1cccc(Cl)c1` [Example 50, N-(3-Chlorophenyl)-N-((8-fluoro-5-methyl-2-oxo-1,2-dihydroquinolin-4-yl)methyl)-4-methylthiazole-5-carboxamide] gave an EC50 above 5 µM.

The compound `Cc1ncsc1C(=O)N(Cc1cc(=O)[nH]c2cc(F)ccc12)c1cccc(Cl)c1` [Example 51, N-(3-Chlorophenyl)-N-((7-fluoro-2-oxo-1,2-dihydroquinolin-4-yl)methyl)-4-methylthiazole-5-carboxamide] had an EC50 above 5 µM.

`Cc1ncsc1C(=O)N(Cc1cc(=O)[nH]c2c(F)ccc(F)c12)c1cccc(Cl)c1` [Example 52, N-(3-Chlorophenyl)-N-((5,8-difluoro-2-oxo-1,2-dihydroquinolin-4-yl)methyl)-4-methylthiazole-5-carboxamide]: the EC50 is above 5 µM.

`Cc1ncsc1C(=O)N(Cc1cc(=O)[nH]c2c(F)c(F)ccc12)c1cccc(Cl)c1` [Example 53, N-(3-Chlorophenyl)-N-((7,8-difluoro-2-oxo-1,2-dihydroquinolin-4-yl)methyl)-4-methylthiazole-5-carboxamide] yielded an EC50 of at most 5 µM.

Turning to `O=C(c1ccccc1F)N(Cc1cc(=O)[nH]c2c(F)cccc12)c1cccc(Cl)c1` [Example 54, N-(3-Chlorophenyl)-2-fluoro-N-((8-fluoro-2-oxo-1,2-dihydroquinolin-4-yl)methyl)benzamide], the EC50 was above 5 µM.

Take `O=C(c1cccc(F)c1)N(Cc1cc(=O)[nH]c2c(F)cccc12)c1cccc(Cl)c1` [Example 55, N-(3-Chlorophenyl)-3-fluoro-N-((8-fluoro-2-oxo-1,2-dihydroquinolin-4-yl)methyl)benzamide]: the EC50 is above 5 µM.

As for `O=C(c1ccc(F)cc1)N(Cc1cc(=O)[nH]c2c(F)cccc12)c1cccc(Cl)c1` [Example 56, N-(3-Chlorophenyl)-4-fluoro-N-((8-fluoro-2-oxo-1,2-dihydroquinolin-4-yl)methyl)benzamide], the EC50 was above 5 µM.

`Cc1ccccc1C(=O)N(Cc1cc(=O)[nH]c2c(F)cccc12)c1cccc(Cl)c1` [Example 57, N-(3-Chlorophenyl)-N-((8-fluoro-2-oxo-1,2-dihydroquinolin-4-yl)methyl)-2-methylbenzamide] showed an EC50 above 5 µM.

On to `Cc1cccc(C(=O)N(Cc2cc(=O)[nH]c3c(F)cccc23)c2cccc(Cl)c2)c1` [Example 58, N-(3-Chlorophenyl)-N-((8-fluoro-2-oxo-1,2-dihydroquinolin-4-yl)methyl)-3-methylbenzamide], for which the EC50 was above 5 µM.

`Cc1ccc(C(=O)N(Cc2cc(=O)[nH]c3c(F)cccc23)c2cccc(Cl)c2)cc1` [Example 59, N-(3-Chlorophenyl)-N-((8-fluoro-2-oxo-1,2-dihydroquinolin-4-yl)methyl)-4-methylbenzamide] displayed an EC50 above 5 µM.

In the case of `COc1ccccc1C(=O)N(Cc1cc(=O)[nH]c2c(F)cccc12)c1cccc(Cl)c1` [Example 60, N-(3-Chlorophenyl)-N-((8-fluoro-2-oxo-1,2-dihydroquinolin-4-yl)methyl)-2-methoxybenzamide], the EC50 was above 5 µM.

Regarding `COc1cccc(C(=O)N(Cc2cc(=O)[nH]c3c(F)cccc23)c2cccc(Cl)c2)c1` [Example 61, N-(3-Chlorophenyl)-N-((8-fluoro-2-oxo-1,2-dihydroquinolin-4-yl)methyl)-3-methoxybenzamide], the EC50 was above 5 µM.

On to `COc1ccc(C(=O)N(Cc2cc(=O)[nH]c3c(F)cccc23)c2cccc(Cl)c2)cc1` [Example 62, N-(3-Chlorophenyl)-N-((8-fluoro-2-oxo-1,2-dihydroquinolin-4-yl)methyl)-4-methoxybenzamide], for which the EC50 is above 5 µM.

`COC(=O)C(=O)N(Cc1cc(=O)[nH]c2c(F)cccc12)c1cccc(Cl)c1` [Example 63, Methyl 2-((3-chlorophenyl)((8-fluoro-2-oxo-1,2-dihydroquinolin-4-yl)methyl)amino)-2-oxoacetate] registered an EC50 above 5 µM.

`N#Cc1ccccc1C(=O)N(Cc1cc(=O)[nH]c2c(F)cccc12)c1cccc(Cl)c1` [Example 64, N-(3-Chlorophenyl)-2-cyano-N-((8-fluoro-2-oxo-1,2-dihydroquinolin-4-yl)methyl)benzamide] displayed an EC50 above 5 µM.

On to `N#Cc1cccc(C(=O)N(Cc2cc(=O)[nH]c3c(F)cccc23)c2cccc(Cl)c2)c1` [Example 65, N-(3-Chlorophenyl)-3-cyano-N-((8-fluoro-2-oxo-1,2-dihydroquinolin-4-yl)methyl)benzamide], for which the EC50 was above 5 µM.

In the case of `N#Cc1ccc(C(=O)N(Cc2cc(=O)[nH]c3c(F)cccc23)c2cccc(Cl)c2)cc1` [Example 66, N-(3-Chlorophenyl)-4-cyano-N-((8-fluoro-2-oxo-1,2-dihydroquinolin-4-yl)methyl)benzamide], the concentration giving a half-maximal response (EC50) is above 5 µM.

On to `O=C(c1ccccn1)N(Cc1cc(=O)[nH]c2c(F)cccc12)c1cccc(Cl)c1` [Example 67, N-(3-Chlorophenyl)-N-((8-fluoro-2-oxo-1,2-dihydroquinolin-4-yl)methyl)picolinamide], for which the EC50 was above 5 µM.

For the compound `O=C(c1cccnc1)N(Cc1cc(=O)[nH]c2c(F)cccc12)c1cccc(Cl)c1` [Example 68, N-(3-Chlorophenyl)-N-((8-fluoro-2-oxo-1,2-dihydroquinolin-4-yl)methyl)nicotinamide], the half-maximal effective concentration (EC50) is above 5 µM.

Consider `O=C(c1ccncc1)N(Cc1cc(=O)[nH]c2c(F)cccc12)c1cccc(Cl)c1` [Example 69, N-(3-Chlorophenyl)-N-((8-fluoro-2-oxo-1,2-dihydroquinolin-4-yl)methyl)isonicotinamide], for which the EC50 was above 5 µM.
